This note sets out measurements from patent US20110130449A1, “Assay for Monitoring Activity of Jmjd6” (Isis Innovation Limited, priority 2008, published 2011).

Square brackets hold non-standard residues; d marks the D form. Ends that are not written are not given here. Arg(Me2s) = CN=C(NC)NCCC[C@H](N)C(=O)O

For experiment [1], the target named is T1, Jmjd6 (Homo sapiens, UniProt Q6NYC1). Put plainly: biochemical. It counts as biochemical. The settings on record: for rank of inhibition of Jmjd6 activity (in words) / inhibitory effect on Jmjd6 activity: 100 μM inhibitor, substrate peptide d; for hydroxylation of peptide d, as observed by MALDI: 100 μM compound added to assay; for enhancers of Jmjd6 activity (statement): chelating agents. As for the experimental part: (§1) Standard assays consisted of the substrate mixture: peptide (100 μM), 2OG (500 μM), ascorbate (100 μM) in Tris (50 mM, pH 7.5); and the enzyme mixture: FeNH4SO4 (100 μM) and Jmjd6 (10 μM) in Tris (50 mM, pH 7.5). The reaction was initiated by mixing the substrate and enzyme mixtures and incubating at 37° C. for 30-60 minutes. The reaction was quenched by adding TFA to a final concentration of 0.1% and incubating on ice. Hydroxylation of the peptide was analysed by a MALDI TOF micro MX mass spectrometer (Waters Micromass); where the assay mixture (1 μL), along with α-cyano-4-hydroxycinnamic acid MALDI (CHCA) matrix in 60% acetonitrile/0.1% TFA (1 μL), was spotted directly onto the target plate. To determine whether modification of peptide was Jmjd6-dependent assays were performed omitting either 2OG or Fe(II). To determine whether Jmjd6 was inhibited by N-oxaloylglycine (NOG), NOG (24 mM) was added to the substrate component of the assay system.
To determine the pH profile of Jmd6 standard peptide assays were performed over a pH range of 6 to 9. Buffers used were piperazine-N,N′-bis(ethanesulfonic acid) (PIPES) (pH 6.0 and 6.5), 4-(2-hydroxyethyl)-1-piperazineethanesulfonic acid (HEPES) (pH 7.0 to 8.0) and N,N-bis(2-hydroxyethyl) glycine (BICINE) (pH 8.5 and 9.0). Inhibition assays were performed under identical conditions as described for the standard assays except either succinate (1 mM) or fumarate (1 mM) were included in the substrate mixture.
A control without inhibitor was included as a reference.

Experiment [2] concerns the target T1, Jmjd6. Put plainly: Standard assay for Jmjd6 oxygenase activity: peptide hydroxylation by MALDI-TOF MS. It counts as biochemical. The settings on record: for activity (hydroxylation of LUC7-like2 peptides): Table 4, standard assay conditions; for mass shift relative to un-reacted peptide: incubation with Jmjd6, oxygen, ascorbate, Fe(II), 2OG, MALDI-TOF MS. The text has this:
All peptides tested as potential substrates of Jmjd6 were synthesised in-house by a Intavis MultiPep automated multiple synthesiser, using Tentagel amide resin (Intavis). Fluorenylmethoxycarbonyl (Fmoc)-protected amino acids were coupled with N,N′-diisopropylcarbodiimide (DIC)/1-hydroxybenzotriazole (HOBt). Cleavage of the completed peptides from the resin used CF3CO2H (TFA)/[…]. Predicted masses were confirmed by MALDI-TOF mass spectrometry. Standard assay conditions were used and are described above.
To determine whether U2AF65, CROP and LUC7-like2 were substrates of Jmjd6, multiple peptides were synthesized based on the RS domains of these proteins (FIG. 8). Initial peptides were synthesized with dimethylated arginine residues because it was speculated that Jmjd6 may be an arginine demethylase (FIG. 9). To determine whether any of these peptides were Jmjd6 substrates, incubations were carried out in the presence of oxygen, ascorbate, Fe(II) and 2OG; and peptide modifications were analyzed by MALDI-TOF MS.

Experiment [3] concerns full-length Jmjd6 (SEQ ID NO:1), Jmjd6 residues 1 to 343, Jmjd6 residues 25 to 338. The settings on record: peptide d 100 μM; FIGS. 18 and 19. As for the experimental part:
as §1

Setting [4] is: succinate (1 mM) or fumarate (1 mM) in substrate mixture.

In the case of `O=C(O)CCC(=O)O` [succinate], in experiment [1], the “inhibitory of Jmjd6 lysyl hydroxylase activity (statement)” value (“inhibitory … (statement)” below) is “inhibitory” and the “rank of inhibition of Jmjd6 activity (in words)” value (“rank of inhibition … (in words)” below) is “most potent inhibitors”. For the same compound, the “inhibition of the +16 mass shift in peptide d” value in experiment [1] (setting [4]) is on record as “completely inhibited”.

Turning to `O=C(O)/C=C/C(=O)O` [fumarate], in experiment [1], the “inhibitory … (statement)” value is reported as “inhibitory” and the “rank of inhibition … (in words)” value is reported as “most potent inhibitors”. The “inhibition of the +16 mass shift in peptide d” value in experiment [1] (setting [4]) is recorded as “completely inhibited”.

Turning to 24 (NPKRSRSREHKK) [No 24], in experiment [2], the “activity (hydroxylation of LUC7-like2 peptides)” value is “yes”.

In the case of “SHSRSRSR(Me2sym)DRKRRSRS (chain 1 SHSRSRS[Arg(Me2s)]; also: chains 1 and 2 form one continuous peptide) [No 9]”, the “mass shift relative to un-reacted peptide” value in experiment [2] was “+16”.

Regarding `O=C(O)c1ccnc(C(=O)O)c1` [pyridine-2,4-dicarboxylic acid], in experiment [1], the “inhibitory … (statement)” value is “inhibitory” and the “rank of inhibition … (in words)” value was “most potent inhibitors”.

As to 20 (NPKKSKSREHRR) [No 20], the “activity (hydroxylation of LUC7-like2 peptides)” value in experiment [2] is “double”.

As to `O=C(O)CNC(=O)C(=O)O` [NOG, N-oxalylglycine], in experiment [1], the “inhibitory … (statement)” value is on record as “inhibitory”. Also, in experiment [1] (12 mM NOG in the assay mixture), the “inhibition of hydroxylation of peptide d, as observed by MALDI” value is on record as “completely inhibited”. Also, the “inhibition of the +16 mass shift in peptide d” value in experiment [1] (NOG 24 mM added to substrate component, FIG. 11 legend 120 mM) is on record as “completely inhibited”. For the same compound, the inhibition at 100 µM in experiment [1] (read-out: inhibitory effect on Jmjd6 activity) was less than 20%.

For the compound 22 (NPKKSKSKEHKK) [No 22], in experiment [2], the “activity (hydroxylation of LUC7-like2 peptides)” value was “double”.

For `O=c1c(-c2ccc(O)cc2)coc2cc(O)cc(O)c12` [genistein], in experiment [1], the “inhibitory … (statement)” value was “inhibitory”.

Take `O=C(O)c1ccc(C(=O)O)nc1` [pyridine-2,5-dicarboxylic acid]: in experiment [1], the “hydroxylation of peptide d, as observed by MALDI” value came out at 100% and the “enhancers of Jmjd6 activity (statement)” value was “Enhancers”.

As for 23 (NPKRSRSKEHKK) [No 23], the “activity (hydroxylation of LUC7-like2 peptides)” value in experiment [2] was “yes”.

With “SHSRSR(Me2sym)SRDRKRRSRS ({Ser-H2N-Ser-Arg-Ser-(R(Me2sym))}-SRDRKRRSRS) [No 10]”, the “mass shift relative to un-reacted peptide” value in experiment [2] was “+16”.

As to `O=C(O)c1cccc(C(=O)O)n1` [pyridine-2,6-dicarboxylic acid], in experiment [1], the “hydroxylation of peptide d, as observed by MALDI” value is reported as 100% and the “enhancers of Jmjd6 activity (statement)” value is listed as “Enhancers”.

In the case of `O=C(O)CNC(=O)c1nc(Cl)c2ccccc2c1O` [FG2216], in experiment [1], the “inhibitory … (statement)” value is “inhibitory” and the “inhibitory effect on Jmjd6 activity” value was roughly 50%.

For the compound NPKRSRSREHRR [No 12], the “hydroxylation of peptide d by truncated and full-length Jmjd6” value in experiment [3] was “hydroxylated”.

Regarding `O=C(O)c1c[nH]c2c(ccc3cccnc32)c1=O` [FG0041], in experiment [1], the “inhibitory … (statement)” value was “inhibitory” and the “inhibitory effect on Jmjd6 activity” value was roughly 50%.

On to “NPKRSRSR(Me2sym))EHRRHRSR (chain 1 NPKRSRS[Arg(Me2s)]; also: chains 1 and 2 form one continuous peptide) [No 1]”, for which the “mass shift relative to un-reacted peptide” value in experiment [2] is reported as “+16”.

With 21 (NPKKSKSKEHRR) [No 21], the “activity (hydroxylation of LUC7-like2 peptides)” value in experiment [2] is reported as “double”.
